Measurements reported in US20100216749A1, “Combination Therapy for Neuroprotection” (S.H. PHARMA., LTD, priority 2007, published 2010).
Where “and” joins values, the source holds several entries; their conditions need not be identical. Equal values may be shown once.

Key:
[1] = test system: middle cerebral artery occlusion (MCAO) stroke animal model; test: Cerebral infarction volume by TTC staining of brain sections after 1 h MCAO/reperfusion; assay type: in vivo, rat; details: for concentration at which the size of cerebral infarction was inhibited most effectively: i.v. 1, 2, 5, 10 and 20 mg/kg; for cerebral infarction inhibited by: 4 hours after reperfusion (FIG. 11)
[2] = test system: middle cerebral artery occlusion (MCAO) stroke animal model; test: Rota-rod test (motor skill) after MCAO/reperfusion; details: i.v. 5 mg/kg; for motor skill recovered to, by normal motor skill: 6 hours after MCAO/reperfusion (FIG. 9)
Method: Motor skill of a rat damaged by MCAO was investigated by measuring retention time on Rota-rod (Rota-rod test).
Retention time of each rat on Rota-rod at 5 rpm was measured for 24 hours after MCAO for 1 hour. Next, each rat was also forced to stay on Rota-rod operating at the speeds of 10 rpm and 15 rpm and retention time of each rat was measured at one hour interval. […] The points herein were obtained from repeated experiments, which were performed at 1 hour interval at the speeds of 10 rpm and 15 rpm.

[3] = test system: middle cerebral artery occlusion (MCAO) stroke animal model; test: Evaluation of neurologic deficit (static reflex test and forelimb placing test) after MCAO/reperfusion; assay type: in vivo, rat; details: for neuronal damage / motor skill deficit improved: administered 6 hours after MCAO/reperfusion, Example 1 (FIG. 10)
Method: Forelimb placing was evaluated by the method described (0: immediate and complete placing, 1: incomplete and/or delayed placing, 2: no placing) (De Ryck M. et al., Stroke 20; 1388-1390). Points of static reflex and forelimb placing of each animal were summed.

stroke animal model = details: cited from earlier work
[4] = i.v. 2.5 mg/kg each drug, 6 hours after reperfusion (Examples 9-12)
[5] = i.v. 5 mg/kg each drug, 6 hours after reperfusion (Examples 3-8)
[6] = 6 hours after reperfusion (FIG. 23)
[7] = i.v. 2.5 mg/kg each drug, 6 hours after reperfusion (Examples 9-12), 2.5 mg/kg
[8] = administered 4 hours after neuronal damage, Example 2 (FIG. 13)
[9] = administered 6 hours after neuronal damage (Examples 4-7)

CC(=O)Oc1cc(C(F)(F)F)ccc1C(=O)O [2-acetoxy-4-(trifluoromethyl)benzoic acid]
volume of cerebral infarction reduced by [1, 4]: 23%

O=C(O)c1ccc(C(F)(F)F)cc1O [2-hydroxy-4-trifluoromethylbenzoic acid]
volume of cerebral infarction reduced by [1, 4]: 30%

CC(=O)Oc1ccccc1C(=O)O [acetylsalicylic acid]
motor skill recovered to, by normal motor skill [2]: 30% | neuronal damage / motor skill deficit improved [3]: very weak

CNCCC(Oc1ccc(C(F)(F)F)cc1)c1ccccc1 (centres unmarked) [fluoxetine chloride, N-methyl-[4-(trifluoromethyl)phenoxy]benzenepropaneamine]
volume of cerebral infarction reduced by [1, 5]: 59% | concentration at which the size of cerebral infarction was inhibited most effectively [1, 6]: 5 mg/kg

CCNC(=O)C(C)=O [pyruvoylaminoethane]
volume of cerebral infarction reduced by [1, 7]: 20% and 25%

chloro-2-hydroxy-5-(2,3,5,6-tetrafluoro-4-(trifluoromethyl)benzylamino)benzoate
neuronal damage improved / neurologic deficit recovered [3, 8]: very weak | cerebral infarction inhibited by ([1]; i.v. 5 mg/kg each drug): 30%

chloro-2-hydroxy-5-(2-(2,4,5-trichlorophenoxy)ethylamino)benzoic acid
neuronal damage improved / neurologic deficit recovered [3, 9]: very weak | volume of cerebral infarction reduced by [1, 5]: 64%

chloro-2-hydroxy-5-(2-(4-methoxyphenoxy)ethylamino)benzoic acid
neuronal damage improved / neurologic deficit recovered [3, 9]: very weak | volume of cerebral infarction reduced by [1, 5]: 53%

chloro-2-hydroxy-5-(4-(trifluoromethyl)phenylethylamino)benzoate
volume of cerebral infarction reduced by [1, 5]: 58%

chloro-5-(2-(2,4-dichlorophenoxy)ethylamino)-2-hydroxybenzoic acid
neuronal damage improved / neurologic deficit recovered [3, 9]: very weak | volume of cerebral infarction reduced by [1, 5]: 61%

chloro-5-(2-(4-chlorophenoxy)ethylamino)-2-hydroxybenzoic acid
neuronal damage improved / neurologic deficit recovered [3, 9]: very weak | volume of cerebral infarction reduced by [1, 5]: 55%

ethyl pyruvate (pyruvoyloxyethane) [EP]
period spent on Rota-rod ([2]; 6 hours after MCAO/reperfusion (FIG. 4)): significantly longer period on Rota-rod | motor skill recovered to, by normal motor skill [2]: 70% | neuronal damage improved / neurologic deficit recovered [3, 8]: 40% | neuronal damage / motor skill deficit improved [3]: 60% | neuronal damage improved / neurologic deficit recovered [3, 9]: 40% | neurologic deficit after MCAO/reperfusion ([3]; two days after MCAO/reperfusion (FIG. 5)): suppress neurologic deficit | infarcted regions (TTC staining) compared with the control group ([1]; 5 mg/kg, 6 hours after reperfusion (FIG. 1)): significantly decreased | volume of ischemia region ([1]; i.v. 1 mg/kg, 6 hours after reperfusion, 1 h MCAO (FIG. 2)): not changed | cerebral infarction inhibited by ([1]; i.v. 5 mg/kg each drug): 48% | volume of cerebral infarction reduced by [1, 5]: 66% | infarction volume reduced to ([1]; i.v. 5 mg/kg, 30 minutes after reperfusion (FIG. 3)): 17.5% | infarction volume reduced to ([1]; i.v. 5 mg/kg, 30 minutes before reperfusion (FIG. 3)): 9.0% | infarction volume reduced to ([1]; i.v. 5 mg/kg, 6 hours after reperfusion (FIG. 3)): 34.0% | volume of ischemia region reduced to, by the control animal ([1]; i.v. 5 mg/kg, 6 hours after reperfusion, 1 h MCAO (FIG. 2)): 33.6% | infarction volume reduced to ([1]; i.v. 5 mg/kg, 9 hours after reperfusion (FIG. 3)): 58.7% | infarction volume reduced to ([1]; i.v. 5 mg/kg, 12 hours after reperfusion (FIG. 3)): 58.0% | infarction inhibiting effect when concentration increased ([1]; i.v. 10 mg/kg each versus 5 mg/kg, 6 hours after reperfusion (FIG. 23)): the effect was not increased | volume of ischemia region reduced to, by the control animal ([1]; i.v. 10 mg/kg, 6 hours after reperfusion, 1 h MCAO (FIG. 2)): 41.7% | volume of ischemia region reduced to, by the control animal ([1]; i.v. 20 mg/kg, 6 hours after reperfusion, 1 h MCAO (FIG. 2)): 61.6% | concentration at which the size of cerebral infarction was inhibited most effectively [1, 6]: 5 mg/kg | size of infarction reduced (stroke animal model; administered 24 hours after ischemia-reperfusion): approximately 20% | size of infarction reduced to (stroke animal model; administered into the abdominal cavity 12 hours after ischemia-reperfusion): less than 50%

pyruvoylamininediethane
volume of cerebral infarction reduced by [1, 7]: 40% and 31%
